# Entries after “also recorded” stand apart in the source; their conditions may differ.
# How the values were obtained:
# [1] = tested on: BxPC-3, MCF-7 and JIMT-1 cancer cells; assay: MTT proliferation assay with IGF-1R peptide mimics; type: cell-based, human; conditions: 25, 50, 100, 150 μg/ml, three days
# Description: The effects of treatment with the IGF-1R peptide mimics were evaluated as inhibitors on proliferation of human pancreatic (BxPC-3) and breast (MCF-7 and JIMT-1) cancer cells. Ligand binding to the IGF-1 receptor results in activation that causes increase proliferation of the receptor and intracellular signaling. Accordingly, the effects of the IGF-1R peptide mimics on ligand binding inhibition and inhibition of cancer cell line proliferation were determined. To measure proliferation, the MTT assay was used where the cells were treated with the inhibitors at different concentrations and incubated for three days before adding MTT.
# IGF-1R = molecular target: T1, IGF-1R (Homo sapiens, UniProt P08069); assay: Human-phospho-IGF-1R sandwich ELISA; type: cell-based; conditions: MCF-7, JIMT-1 and BxPC-3 cells
# T1 construct: IGF-1 signaling in MCF-7, JIMT-1 and BxPC-3 cells were analyzed using protein lysates after treatment; endogenous in cells; host or cells: MCF-7, JIMT-1 (human breast cancer) and BxPC-3 (human pancreatic cancer) cells
# Description: The effects of chimeric peptides and antipeptide antibodies on IGF-1 signaling in MCF-7, JIMT-1 and BxPC-3 cells were analyzed using protein lysates after treatment and measurement of phosphorylated levels of the receptors in a sandwich ELISA method using Human-phospho-IGF-1R ELISA kit from R&D diagnostics. […] FIG. 22 A-C is treatment with peptide mimics and FIG. 22-D-F is treatment with peptide vaccine antibodies.
# [2] = tested on: BxPC-3 pancreatic and JIMT-1 breast cancer cells; assay: SCID transplantable breast and pancreatic mouse model, IGF-1R peptides; type: in vivo; conditions: 200 μg i.v. weekly for 7 weeks; P values <0.05
# Description: To test the in vivo effects of the chimeric peptides, a transplantable breast and pancreatic mouse model was used. BxPC-3 pancreatic and JIMT-1 breast cancer cells were injected subcutaneously into the flanks of SCID mice. After tumor challenge, the mice were treated intravenously with the IGF-1R peptide mimics starting at day zero (day of tumor challenge) and weekly for a total of 7 weeks. Tumor growth was monitored twice weekly and at the end of treatment, all mice were euthanized and the tumors extracted and weighed and the percentage tumor weight calculated.
# [3] = tested on: New Zealand white outbred rabbits; assay: Immunogenicity of MVF HER-3 peptide constructs in rabbits (ELISA titers); type: in vivo, rabbit
# Description: Two female New Zealand white outbred rabbits (Harlan) were immunized intramuscularly with 1 mg of MVF HER-3 (237-269) or MVF HER-3 (461-479) peptide dissolved in 500 μL PBS and emulsified in 500 μL of Montanide ISA720 vehicle with 100 μg muramyl dipeptide adjuvant, nor-MDP (N-acetylglucosamine-3yl-acetyl-L-alanyl-D-isoglutamine). Subsequent booster injections were given every three weeks after primary immunization. Sera of rabbits immunized with either MVF peptide were collected weekly, and complement was inactivated by heating to 56° C. for 30 minutes. The titer of anti-HER-3 peptide antibodies were quantified by ELISA. The MVF HER-3 (237-269) and MVF HER-3 (461-479) peptides were highly immunogenic by three weeks after the third immunization. Antibody titers against MVF HER-3 (461-479) and MVF HER-3 (237-269) were ≥32,000 and ≥128,000, respectively (FIGS. 9 A & B). High antibody titers were also generated against B cell epitope constructs. HER-3 (461-479) and HER-3 (237-269) antibody titers were ≥16,000 and ≥128,000, respectively (Data not shown). Total IgG was purified from high-titered sera on a protein A/G column (Pierce, Rockford, Ill.) and eluted antibodies were concentrated and exchanged in PBS using 100 kDa cutoff centrifuge filter units (Millipore). Antibody concentrations were determined by Coomassie plus protein assay reagent kit (Pierce).
# BXPC3 cells [4] = assay: BALB/c SCID transplantable mouse model, BXPC3, HER-3 peptide mimics; type: in vivo; conditions: BXPC3, peptide mimics i.v. weekly
# Description: To test the in vivo effects of the peptide mimics, two transplantable mouse models were used. Mice 4-5 weeks old were challenged with either BXPC3 or JIMT-1 cells subcutaneously into the flank. After tumor challenge, mice were treated intravenously with the peptide mimics starting at day zero (day of tumor challenge) and weekly for a total of 8-9 treatments. Tumor growth was monitored twice weekly and at the end of treatment. All mice were euthanized and weighed. Tumors were also extracted and weighed. Results display tumor volume and % tumor weight (FIG. 16 A-D). Both peptide constructs had the ability to attenuate tumor growth in mice challenged with BXPC3 cells. […] As a result, only the HER-3 (461-479) peptide was used in JIMT-1 tumor model.
# BxPC3 cells [5] = assay: MTT inhibition assay with HER-3 peptide mimics, BxPC3; type: cell-based, human; conditions: 72 hours, HRG stimulated
# Description: The HER-3 peptide mimics and peptide vaccine antibodies may provide anti-tumor activity by blocking dimerization or ligand binding of the HER-3 receptor. To test the ability of the chimeric peptides to elicit antitumor effects, HER-3 positive cells were examined in a MTT inhibition assay. The anti-proliferative effects of the peptide mimics were tested at various concentrations (FIG. 13). Taxol, an inhibitor of mitosis, was used as a positive control (data not shown). Cells were seeded in 96 well flat bottom plates at 1×10^4 cells/well in 100 μl growth media and allowed to adhere overnight at 37° C. Media was removed from the wells and replaced with HER3 peptides made up in 1% growth media. Plates were incubated for 1 hour at 37° C., and subsequently stimulated with either 50 ng/mL HRG. Plates were incubated an additional 72 hours at 37° C. before 25 μL of 5 mg/mL MTT was added to each well. Plates were incubated for 2 hours at 37° C., then 100 μL extraction buffer (20% SDA, 50% DMF, pH 4.7) was added. Plates were incubated overnight at 37° C. and read on an ELISA reader at 570 nm. Percent inhibition was calculated by the following equation: (untreated-treated)/untreated×100. Error bars represent SEM of three separate experiments. […] The HER-3 peptide mimics inhibited proliferation of BXPC3, MCF-7 and JIMT-1 cell lines in a dose-dependent manner. […]
# Met-1 cells = assay: FVB/n Met-1 transplantable breast tumor model; type: in vivo, mouse; conditions: peptide mimics i.v. weekly; for tumor growth and development: vs untreated and irrelevant peptide
# Description: Antitumor effects of immunization with HER-1 peptide vaccines and chimeric peptides in Fvb/n breast cancer model The Fvb/n transplantable model of HER-family dependent breast cancer represents a good model for human breast cancer. The peptide vaccines were dissolved in water and emulsified in Montanide ISA 720 (1:1) and […] (N-acetylglucosamine-3yl-acetyl-1-alanyl-D-isoglutamine). Female wild-type FVB/n mice (Charles River Laboratories) at the age of 5 to 6 weeks were immunized three times at 3-week intervals with […], and 14 days after the third immunization, the mice were challenged s.c. with Met-1 cells (200,000 per mouse). Met-1 cells were derived from the PyMT-transgenic mouse model with FVB/n background. Tumor growth was monitored for up to 6 weeks after challenge. During immunization, blood was drawn biweekly and used in ELISA to monitor Ab titers. In the case of treatment with the chimeric peptides, the mice were simply challenged with Met-1 cells and treated weekly i.v. with […] for up to 6 weeks beginning at day 0. The mice were euthanized at the end of treatment and tumors extracted and weighed.
# Tumor tissues were formalin fixed, embedded in paraffin, and stained immunohistochemically for CD31 and Ki-67. The tissue blocks were cut into […], deparaffinized in xylol, and then rehydrated with different grades of alcohol. The rehydrated sections were then washed with distilled water and placed in a microwave oven for 15 minutes. The slides were then blocked and incubated for 40 minutes at 20° C. with primary Abs specific for Ki-67 and CD31.
# To evaluate the inhibitory effects of the peptide vaccines in vivo, the FVB/n transplantable mouse model was used in which Met-1 cells from FVB/n background were injected in the mammary fat pad of wild-type FVB/n mice after immunization with the chimeric MVF HER-1 peptides as shown in the immunization schedule (data not shown). Tumor development in this model is dependent on the HER family receptor overexpression. All mice were immunized at 5 to 6 weeks of age and received two boosters at 3-week intervals. As depicted in FIG. 5, the vaccine constructs were immunogenic in the mice, and all of the mice had relatively high titers of the Abs (greater than 40,000). Mice were challenged with Met-1 cells and monitored weekly for 6 weeks.
# To test the in vivo effects of the peptide mimics, the same FVB/n model was used as in the case of immunization, but in this experiment, wild-type mice were challenged with Met-1 cells and treated i.v. with the peptide mimics. […] In assessing how the peptide inhibitors exert their effects in vivo, the tumor sections were analyzed after treatment with the peptide mimics for blood vessel density and actively proliferating cells. […] The effect on proliferating cells was most evident in the case of treatment with the 382-410 and the 418-435 constructs (FIG. 7C).
# A549 lung cancer cells = assay: BALB/c SCID transplantable lung tumor model; type: in vivo, mouse; parameters: dose or concentration left out as unconfirmed; conditions: i.v. weekly, peptide mimics or cetuximab
# Description: […] Tumor growth was measured twice weekly using vernier calipers, and at the end of the experiment, the tumors were extracted and weighed.
# [6] = Immunization of transgenic mice with chimeric peptides (summary statement); type: in vivo, mouse; conditions: immunization of transgenic mice with one or more of the chimeric peptides
substance,measurement,setting,value
"ACPPNTYRFEGWRCVDRDF (Ac-ACPPNTYRFEGWRCVDRDF-NH2; cysteine pairing not given here; listed as Homo sapiens) [IGF-1R (234-252), peptide mimic acetylated and amidated]",inhibition of proliferation (MTT),[1],inhibition of all three cell lines which was dose dependent; also recorded: dose-dependent inhibition of proliferation
same,"phosphorylated IGF-1R, treatment with peptides",IGF-1R,able to downregulate the expression of phosphorylated IGF-1R
same,percentage tumor weight,[2],significantly decreased the percentage tumor weight
"ERLDIKHNRPRRDCVAEGK (Ac-ERLDIKHNRPRRDCVAEGK-NH2; listed as Homo sapiens) [HER-3 (461-479), peptide mimic acetylated and amidated]",antibody titers against B cell epitope constructs,"[3]; sera of rabbits immunized with MVF HER-3 peptides, data not shown","≥ 16,000"
same,% tumor weight,BXPC3 cells [4],significantly decreased the % tumor weight
same,tumor growth,BXPC3 cells [4],greater anti-tumor effects
"FVMLNYNTNSSHALRQLRLTQLTE (Ac-FVMLNYNTNSSHALRQLRLTQLTE-NH2; listed as Homo sapiens) [HER-3 (99-122), peptide mimic acetylated and amidated]",Percent inhibition of proliferation,BxPC3 cells [5],~80%
"KIEFMYPPPYLDNERSNGTI [irrelevant peptide, negative control peptide, reference compound]",tumor growth and development,Met-1 cells,no inhibitory effects
"LIQAWPENRTDLHAFENLEIIRGRTKQHG (Ac-LIQAWPENRTDLHAFENLEIIRGRTKQHG-NH2; listed as Homo sapiens) [HER-1 (382-410), peptide mimic acetylated and amidated]",delay in tumor onset,Met-1 cells,approximately 2 weeks
same,microvascular density (CD31) in tumor sections,Met-1 cells,significant reduction in microvascular density
same,percentage tumor weight,Met-1 cells,greater inhibitory effects
same,proliferating cells (Ki-67) in tumor sections,Met-1 cells,most evident
same,tumor growth and development,Met-1 cells,decrease in tumor growth and development
same,tumor growth and development,A549 lung cancer cells,significantly delayed tumor growth and development
"LLFRVAGLESLGDLFPNLTVIRGWKL (Ac-LLFRVAGLESLGDLFPNLTVIRGWKL-NH2; listed as Homo sapiens) [IGF-1R (56-81), peptide mimic acetylated and amidated]",inhibition of proliferation (MTT),[1],inhibition of all three cell lines which was dose dependent; also recorded: dose-dependent inhibition of proliferation
same,"phosphorylated IGF-1R, treatment with peptides",IGF-1R,able to downregulate the expression of phosphorylated IGF-1R
same,percentage tumor weight,[2],significantly decreased the percentage tumor weight
MVF HER-3 (461-479): HER-3 (461-479) synthesized collinearly with modified MVF epitope (SEQ ID NO:12) and GPSL linker (KLLSLIKGVIVHRLEGVEGPSLERLDIKHNRPRRDCVAEGK),tumor growth after immunization,[6],significant delay of tumor growth
same,Antibody titers against MVF peptide,[3]; three weeks after the third immunization,"≥ 32,000"
"SLNITSLGLRSLKEISDG (Ac-SLNITSLGLRSLKEISDG-NH2; listed as Homo sapiens) [HER-1 (418-435), peptide mimic acetylated and amidated]",delay in tumor onset,Met-1 cells,approximately 2 weeks
same,microvascular density (CD31) in tumor sections,Met-1 cells,significant reduction in microvascular density
same,percentage tumor weight,Met-1 cells,greater inhibitory effects
same,proliferating cells (Ki-67) in tumor sections,Met-1 cells,most evident
same,tumor growth and development,Met-1 cells,decrease in tumor growth and development
same,tumor growth and development,A549 lung cancer cells,significantly delayed tumor growth and development

# — patent US10800834B2, “HER-1, HER-3 and IGF-1R compositions and uses thereof” (OHIO STATE INNOVATION FOUNDATION, priority 2013, dated 2020)
